Test results: ChEMBL document CHEMBL4002577, “Phenylthiazole antibiotics: A metabolism-guided approach to overcome short duration of action” (Eur J Med Chem, 2017)
Values after ≈ are worked out from the molar mass of the structure shown. Active and inactive are the calls of the source. The calls are words filed in the database; no cut-off is given here.

Assays:
Staphylococcus aureus [1] = experiment: Antibacterial activity against methicillin/ciprofloxacin/gentamicin/clindamycin-resistant Staphylococcus aureus USA200 NRS383 clinical isolate after 18 to 20 hrs by broth microdilution method; assay type: functional
Staphylococcus aureus [2] = experiment: Bactericidal activity against methicillin/ciprofloxacin/clindamycin-resistant Staphylococcus aureus USA100 NRS382 clinical isolate after 24 hrs; assay type: functional; settings: for MBC: USA100 NRS382, 24 h
Staphylococcus aureus [3] = experiment: Antibacterial activity against methicillin/ciprofloxacin/clindamycin-resistant Staphylococcus aureus USA100 NRS382 clinical isolate after 18 to 20 hrs by broth microdilution method; assay type: functional
Staphylococcus aureus [4] = experiment: Antibacterial activity against methicillin-resistant Staphylococcus aureus 2658 RCMB after 18 to 20 hrs by broth microdilution method; assay type: functional
Staphylococcus aureus [5] = experiment: Bactericidal activity against methicillin/ciprofloxacin/gentamicin/clindamycin-resistant Staphylococcus aureus USA200 NRS383 clinical isolate after 24 hrs; assay type: functional; settings: for MBC: USA200 NRS383, 24 h
Staphylococcus aureus [6] = experiment: Bactericidal activity against vancomycin-resistant Staphylococcus aureus VRSA10 clinical isolate after 24 hrs; assay type: functional; settings: VRSA10, 24 h
Staphylococcus aureus [7] = experiment: Bactericidal activity against methicillin-resistant Staphylococcus aureus USA400 NRS123 clinical isolate after 24 hrs; assay type: functional; settings: for MBC: USA400 NRS123, 24 h
Staphylococcus aureus [8] = experiment: Bactericidal activity against mupirocin/rifampicin-resistant Staphylococcus aureus RN4220 NRS107 clinical isolate after 24 hrs; assay type: functional; settings: RN4220 NRS107, 24 h
Staphylococcus aureus [9] = experiment: Bactericidal activity against vancomycin-resistant Staphylococcus aureus VRSA4 clinical isolate after 24 hrs; assay type: functional; settings: VRSA4, 24 h
Staphylococcus aureus [10] = experiment: Bactericidal activity against methicillin/erythromycin/tetracycline-resistant Staphylococcus aureus USA300 NRS384 clinical isolate after 24 hrs; assay type: functional; settings: for MBC: USA300 NRS384, 24 h
Staphylococcus aureus [11] = experiment: Bactericidal activity against methicillin-resistant Staphylococcus aureus USA400 NRS123 clinical isolate assessed as reduction of bacterial load at 4 times MIC after 24 hrs by time kill assay; assay type: functional
Staphylococcus aureus [12] = experiment: Antibacterial activity against vancomycin-resistant Staphylococcus aureus VRSA4 clinical isolate after 18 to 20 hrs by broth microdilution method; assay type: functional
Staphylococcus aureus [13] = experiment: Antibacterial activity against methicillin-resistant Staphylococcus aureus USA400 NRS123 clinical isolate infected in mouse J774 cells assessed as reduction of bacterial load at 16 ug/ml after 24 hrs relative to control; assay type: functional
Staphylococcus aureus [14] = experiment: Antibacterial activity against vancomycin-resistant Staphylococcus aureus VRSA10 clinical isolate after 18 to 20 hrs by broth microdilution method; assay type: functional
Staphylococcus aureus [15] = experiment: Antibacterial activity against methicillin/erythromycin/tetracycline-resistant Staphylococcus aureus USA300 NRS384 clinical isolate after 18 to 20 hrs by broth microdilution method; assay type: functional
Staphylococcus aureus [16] = experiment: Antibacterial activity against methicillin-resistant Staphylococcus aureus USA400 NRS123 clinical isolate after 18 to 20 hrs by broth microdilution method; assay type: functional
Staphylococcus aureus [17] = experiment: Antibacterial activity against mupirocin/rifampicin-resistant Staphylococcus aureus RN4220 NRS107 clinical isolate after 18 to 20 hrs by broth microdilution method; assay type: functional
HaCaT = experiment: Cytotoxicity against human HaCaT cells assessed as decrease in cell viability up to 16 ug/ml after 2 hrs by MTS assay; assay type: cell-based

Structure (SMILES) | MIC (Staphylococcus aureus [1]) [µg/mL] | MBC (Staphylococcus aureus [2]) [µg/mL] | MIC (Staphylococcus aureus [3]) [µg/mL] | MIC (Staphylococcus aureus [4]) [µg/mL] | MBC (Staphylococcus aureus [5]) [µg/mL] | MBC (Staphylococcus aureus [6]) [µg/mL] | MBC (Staphylococcus aureus [7]) [µg/mL] | MBC (Staphylococcus aureus [8]) [µg/mL] | MBC (Staphylococcus aureus [9]) [µg/mL] | MBC (Staphylococcus aureus [10]) [µg/mL] | MIC (Staphylococcus aureus [12]) [µg/mL] | MIC (Staphylococcus aureus [14]) [µg/mL] | MIC (Staphylococcus aureus [15]) [µg/mL] | MIC (Staphylococcus aureus [16]) [µg/mL] | MIC (Staphylococcus aureus [17]) [µg/mL] | also measured
CCC(CC)COc1ccc(-c2nc(C)c(/C(C)=N/NC(=N)N)s2)cc1 | 32 (≈ 85.7 µM) | 32 (≈ 85.7 µM) | 32 (≈ 85.7 µM) | 7.81 (≈ 20.9 µM) | > 64 |  |  |  |  |  |  |  |  |  |  | 
CN[C@H](CC(C)C)C(=O)N[C@H]1C(=O)N[C@@H](CC(N)=O)C(=O)N[C@H]2C(=O)N[C@H]3C(=O)N[C@H](C(=O)N[C@H](C(=O)O)c4cc(O)cc(O)c4-c4cc3ccc4O)[C@H](O)c3ccc(c(Cl)c3)Oc3cc2cc(c3O[C@@H]2O[C@H](CO)[C@@H](O)[C@H](O)[C@H]2O[C@H]2C[C@](C)(N)[C@H](O)[C@H](C)O2)Oc2ccc(cc2Cl)[C@H]1O [VANCOMYCIN] |  | < 1 | < 1 | 1.95 (≈ 1.35 µM) | 0.5 (≈ 0.345 µM) | > 512 | 0.5 (≈ 0.345 µM) | 1 (≈ 0.69 µM) | > 512 | 1 (≈ 0.69 µM) | > 512 | > 512 |  |  |  | Activity (Staphylococcus aureus [11]): Active; Activity (Staphylococcus aureus [13]): inactive
C/C=C/COc1ccc(-c2nc(C)c(/C(C)=N/NC(=N)N)s2)cc1 | 16 (≈ 46.6 µM) | 128 (≈ 373 µM) | 16 (≈ 46.6 µM) | 15.6 (≈ 45.5 µM) | > 64 | 32 (≈ 93.2 µM) | > 32 | 32 (≈ 93.2 µM) | 32 (≈ 93.2 µM) | > 32 | 32 (≈ 93.2 µM) | 32 (≈ 93.2 µM) | 32 (≈ 93.2 µM) | 32 (≈ 93.2 µM) | 32 (≈ 93.2 µM) | 
CCCCCCCCCOc1ccc(-c2nc(C)c(/C(C)=N/NC(=N)N)s2)cc1 | 4 (≈ 9.62 µM) | 8 (≈ 19.2 µM) |  | > 30 | 8 (≈ 19.2 µM) | 16 (≈ 38.5 µM) | 16 (≈ 38.5 µM) | 16 (≈ 38.5 µM) | 16 (≈ 38.5 µM) | 16 (≈ 38.5 µM) | 16 (≈ 38.5 µM) | 16 (≈ 38.5 µM) | 16 (≈ 38.5 µM) | 16 (≈ 38.5 µM) | 16 (≈ 38.5 µM) | 
C/C(=N\NC(=N)N)c1sc(-c2ccc(OCCC(C)C)cc2)nc1C | 8 (≈ 22.3 µM) | 8 (≈ 22.3 µM) | 8 (≈ 22.3 µM) | 7.81 (≈ 21.7 µM) | 16 (≈ 44.5 µM) | 32 (≈ 89 µM) | > 32 | 16 (≈ 44.5 µM) | 32 (≈ 89 µM) | 32 (≈ 89 µM) | 16 (≈ 44.5 µM) | 16 (≈ 44.5 µM) | 16 (≈ 44.5 µM) | 16 (≈ 44.5 µM) | 16 (≈ 44.5 µM) | 
C/C(=N\NC(=N)N)c1sc(-c2ccc(OC3CCCC3)cc2)nc1C | 2 (≈ 5.59 µM) | 4 (≈ 11.2 µM) | 2 (≈ 5.59 µM) | 15.6 (≈ 43.7 µM) | 16 (≈ 44.8 µM) | 8 (≈ 22.4 µM) | 32 (≈ 89.5 µM) | 8 (≈ 22.4 µM) | 8 (≈ 22.4 µM) | 8 (≈ 22.4 µM) | 8 (≈ 22.4 µM) | 8 (≈ 22.4 µM) | 8 (≈ 22.4 µM) | 8 (≈ 22.4 µM) | 8 (≈ 22.4 µM) | Activity (Staphylococcus aureus [2]): Dose-dependent effect; Activity (Staphylococcus aureus [7]): Dose-dependent effect; Activity (HaCaT): Non-Toxic; Activity (Staphylococcus aureus [10]): Dose-dependent effect; Activity (Staphylococcus aureus [5]): Dose-dependent effect
C/C(=N\NC(=N)N)c1sc(-c2ccc(OCC3CCC3)cc2)nc1C |  |  |  | > 30 |  |  |  |  |  |  |  |  |  |  |  | 
C/C(=N\NC(=N)N)c1sc(-c2ccc(OCC(C)C)cc2)nc1C | 8 (≈ 23.2 µM) | 16 (≈ 46.3 µM) | 8 (≈ 23.2 µM) | 15.6 (≈ 45.2 µM) | 8 (≈ 23.2 µM) | 32 (≈ 92.6 µM) | > 32 | 32 (≈ 92.6 µM) | 32 (≈ 92.6 µM) | 32 (≈ 92.6 µM) | 16 (≈ 46.3 µM) | 16 (≈ 46.3 µM) | 16 (≈ 46.3 µM) | 16 (≈ 46.3 µM) | 32 (≈ 92.6 µM) | 
CCOc1ccc(-c2nc(C)c(/C(C)=N/NC(=N)N)s2)cc1 |  |  |  | > 30 |  |  |  |  |  |  |  |  |  |  |  | 
